Assay results: ChEMBL document CHEMBL1201862, “PubChem BioAssay data set” (2004)
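Tested at 5 concentrations; 48 h exposure; 96-well plates; endpoints linearly interpolated, else capped at highest concentration. Abbreviation: GI50, concentration required for 50% inhibition of growth.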 The source made the active and inactive calls. Cut-off read from the data, not from the text of the source: active = GI50 up to about 1.1 µM and inactive = higher.

Experiments:
Assay in all cases: inhibition of tumour cell growth, NCI panel, 48 h
[1] = system: HL-60
[2] = system: EKVX
[3] = system: HOP-92
[4] = system: OVCAR-3
[5] = system: NCI-H226
[6] = system: CCRF-CEM
[7] = system: SR
[8] = system: ACHN
[9] = system: OVCAR-5
[10] = system: SF-295
[11] = system: MDA-MB-435
[12] = system: TK-10
[13] = system: HOP-62
[14] = system: SK-MEL-28
[15] = system: NCI-H522
[16] = system: CAKI-1
[17] = system: HCT-116
[18] = system: RXF 393
[19] = system: SF-539

SMILES	GI50 [1]	GI50 [2]	GI50 [3]	GI50 [4]	GI50 [5]	GI50 [6]	GI50 [7]	GI50 [8]	GI50 [9]	GI50 [10]	GI50 [11]	GI50 [12]	GI50 [13]	GI50 [14]	GI50 [15]	GI50 [16]	GI50 [17]	GI50 [18]	GI50 [19]
CC(C)(C)c1cc(Br)c(O)c(CN(Cc2cc(C(C)(C)C)cc(Br)c2O)C2CCCCC2)c1	17.6 µM (inactive)	14.8 µM (inactive)	15.5 µM (inactive)	11.9 µM (inactive)	15.6 µM (inactive)	13.3 µM (inactive)	10.1 µM (inactive)	14.9 µM (inactive)	15.7 µM (inactive)	12.7 µM (inactive)	14.3 µM (inactive)	15.8 µM (inactive)	15.2 µM (inactive)	15.5 µM (inactive)	12.6 µM (inactive)	12.3 µM (inactive)	12.5 µM (inactive)	10.7 µM (inactive)	–
CCCC(=O)OC1CC(n2cc(F)c(=O)[nH]c2=O)OC1COP(=O)(OCC(Cl)(Cl)Cl)OCC(Cl)(Cl)Cl (stereo not drawn)	10.8 µM (inactive)	43.8 µM (inactive)	4.99 µM (inactive)	4.24 µM (inactive)	65.2 µM (inactive)	0.372 µM (active)	1.25 µM (inactive)	0.147 µM (active)	28.4 µM (inactive)	0.167 µM (active)	18.2 µM (inactive)	22.5 µM (inactive)	0.131 µM (active)	12.3 µM (inactive)	5.51 µM (inactive)	0.283 µM (active)	3.18 µM (inactive)	–	–
O=C1CN(c2ccccc2)C(=O)CN1NCNN1CC(=O)N(c2ccccc2)CC1=O	> 100 µM (inactive)	> 100 µM (inactive)	> 100 µM (inactive)	> 100 µM (inactive)	–	> 100 µM (inactive)	> 100 µM (inactive)	> 100 µM (inactive)	> 100 µM (inactive)	> 100 µM (inactive)	> 100 µM (inactive)	> 100 µM (inactive)	> 100 µM (inactive)	> 100 µM (inactive)	> 100 µM (inactive)	> 100 µM (inactive)	> 100 µM (inactive)	> 100 µM (inactive)	> 100 µM (inactive)
CCc1c2c([nH]c(=S)c1C#N)CCC2	> 100 µM (inactive)	16.9 µM (inactive)	2.35 µM (inactive)	> 100 µM (inactive)	> 100 µM (inactive)	48.8 µM (inactive)	74.5 µM (inactive)	> 100 µM (inactive)	> 100 µM (inactive)	> 100 µM (inactive)	> 100 µM (inactive)	> 100 µM (inactive)	> 100 µM (inactive)	> 100 µM (inactive)	> 100 µM (inactive)	> 100 µM (inactive)	> 100 µM (inactive)	> 100 µM (inactive)	–
S=c1[nH]n2c(CCCCCCCCc3nnc4sc(=S)[nH]n34)nnc2s1	> 100 µM (inactive)	> 100 µM (inactive)	> 100 µM (inactive)	> 100 µM (inactive)	> 100 µM (inactive)	83 µM (inactive)	> 100 µM (inactive)	> 100 µM (inactive)	> 100 µM (inactive)	> 100 µM (inactive)	> 100 µM (inactive)	–	> 100 µM (inactive)	> 100 µM (inactive)	> 100 µM (inactive)	> 100 µM (inactive)	> 100 µM (inactive)	–	> 100 µM (inactive)
O=Cc1ccc2c(c1)CC1(Cc3ccccc3C1)C2	19.4 µM (inactive)	15.3 µM (inactive)	16.4 µM (inactive)	14.3 µM (inactive)	22.5 µM (inactive)	7.78 µM (inactive)	2.82 µM (inactive)	22.1 µM (inactive)	> 100 µM (inactive)	31.3 µM (inactive)	16.7 µM (inactive)	36.6 µM (inactive)	16.1 µM (inactive)	–	48.4 µM (inactive)	–	> 100 µM (inactive)	> 100 µM (inactive)	17.3 µM (inactive)
COc1nc2c(c(=O)[nH]1)N=C(c1ccc([N+](=O)[O-])cc1)CC(c1ccccc1)N2 (stereo not drawn)	16 µM (inactive)	95.9 µM (inactive)	84.3 µM (inactive)	> 100 µM (inactive)	> 100 µM (inactive)	37.9 µM (inactive)	99.1 µM (inactive)	76.4 µM (inactive)	> 100 µM (inactive)	> 100 µM (inactive)	> 100 µM (inactive)	–	> 100 µM (inactive)	94.8 µM (inactive)	66.4 µM (inactive)	> 100 µM (inactive)	34.5 µM (inactive)	94.6 µM (inactive)	> 100 µM (inactive)
COc1cccc2c(=O)oc(-c3ccc(C(C)(C)C)cc3)nc12	18.5 µM (inactive)	63.7 µM (inactive)	41.6 µM (inactive)	29.9 µM (inactive)	–	33.7 µM (inactive)	26.1 µM (inactive)	> 100 µM (inactive)	> 100 µM (inactive)	69.7 µM (inactive)	59.7 µM (inactive)	> 100 µM (inactive)	48.2 µM (inactive)	> 100 µM (inactive)	30.1 µM (inactive)	35.8 µM (inactive)	49.9 µM (inactive)	49.3 µM (inactive)	> 100 µM (inactive)
COC(=O)/C(C#N)=C(/NCCN)Nc1ccccc1	> 100 µM (inactive)	> 100 µM (inactive)	> 100 µM (inactive)	> 100 µM (inactive)	> 100 µM (inactive)	–	> 100 µM (inactive)	> 100 µM (inactive)	> 100 µM (inactive)	> 100 µM (inactive)	> 100 µM (inactive)	> 100 µM (inactive)	> 100 µM (inactive)	> 100 µM (inactive)	> 100 µM (inactive)	> 100 µM (inactive)	> 100 µM (inactive)	> 100 µM (inactive)	> 100 µM (inactive)
Cc1ccc(NC(=O)c2cc(S(=O)(=O)Nc3n[nH]c(=O)n3-c3ccccc3)c(S)cc2Cl)cc1	> 100 µM (inactive)	> 100 µM (inactive)	> 100 µM (inactive)	> 100 µM (inactive)	> 100 µM (inactive)	–	> 100 µM (inactive)	–	> 100 µM (inactive)	–	> 100 µM (inactive)	> 100 µM (inactive)	–	> 100 µM (inactive)	> 100 µM (inactive)	> 100 µM (inactive)	> 100 µM (inactive)	> 100 µM (inactive)	> 100 µM (inactive)
CC(=O)Oc1ccc2oc(=O)cc(C)c2c1	> 100 µM (inactive)	> 100 µM (inactive)	> 100 µM (inactive)	> 100 µM (inactive)	> 100 µM (inactive)	> 100 µM (inactive)	> 100 µM (inactive)	> 100 µM (inactive)	–	> 100 µM (inactive)	> 100 µM (inactive)	> 100 µM (inactive)	> 100 µM (inactive)	> 100 µM (inactive)	> 100 µM (inactive)	> 100 µM (inactive)	> 100 µM (inactive)	> 100 µM (inactive)	> 100 µM (inactive)
Nc1nc(Cl)cc(NCC2(CO)CC(CCCc3ccccc3)C2)n1 (stereo not drawn)	> 35.1 µM (inactive)	> 25.3 µM (inactive)	34 µM (inactive)	> 100 µM (inactive)	> 100 µM (inactive)	> 73.1 µM (inactive)	1 µM (active)	> 41.8 µM (inactive)	> 100 µM (inactive)	> 33.2 µM (inactive)	> 100 µM (inactive)	> 77.4 µM (inactive)	> 100 µM (inactive)	> 100 µM (inactive)	> 68.7 µM (inactive)	> 100 µM (inactive)	–	> 47.1 µM (inactive)	> 100 µM (inactive)
O=C(CSc1nc2ccccc2s1)c1sc2sc3ccccc3[n+]2c1[O-]	> 100 µM (inactive)	> 100 µM (inactive)	> 100 µM (inactive)	> 100 µM (inactive)	> 100 µM (inactive)	–	> 100 µM (inactive)	> 100 µM (inactive)	> 100 µM (inactive)	> 100 µM (inactive)	> 100 µM (inactive)	> 100 µM (inactive)	> 100 µM (inactive)	> 100 µM (inactive)	> 100 µM (inactive)	> 100 µM (inactive)	> 100 µM (inactive)	> 100 µM (inactive)	> 100 µM (inactive)
COc1cc(C2S/C(=C/c3ccccc3)C(=O)N2c2cccc(Cl)c2)cc(OC)c1OC (stereo not drawn)	30.9 µM (inactive)	37.2 µM (inactive)	96.4 µM (inactive)	30.1 µM (inactive)	93.5 µM (inactive)	25.6 µM (inactive)	19.4 µM (inactive)	30.6 µM (inactive)	> 100 µM (inactive)	33.7 µM (inactive)	22.2 µM (inactive)	> 100 µM (inactive)	–	78.3 µM (inactive)	18.2 µM (inactive)	30.8 µM (inactive)	36.3 µM (inactive)	–	31 µM (inactive)
Clc1ccc(CCN2CCN(CCCc3ccccc3)CC2)cc1Cl	15.7 µM (inactive)	17.4 µM (inactive)	11.3 µM (inactive)	16.4 µM (inactive)	20.1 µM (inactive)	33.3 µM (inactive)	26.7 µM (inactive)	19.6 µM (inactive)	16.2 µM (inactive)	16.4 µM (inactive)	17.3 µM (inactive)	16.2 µM (inactive)	18.5 µM (inactive)	18.7 µM (inactive)	20.6 µM (inactive)	17.1 µM (inactive)	15.1 µM (inactive)	–	17.8 µM (inactive)
